Data: US8158657B2, “Heterocycles substituted pyridine derivatives and antifungal agent containing thereof” (Eisai R&D Management Co., Ltd., priority 2005, dated 2012)
Values after ≈ are worked out from the molar mass of the structure shown.

Tests used:
[1] = tested on: C. albicans CAF2-1 strain; assay: Anti-Candida activity, MIC measurement; type: cell-based; details: CAF21STRAIN, C. albicans CAF2-1, RPMI1640, 42-48 hours at 35° C., visual inspection, read-out: Anti-Candida Activity (minimum inhibitory concentration, MIC)
Method: (§1) For the C. albicans CAF2-1 strain, a fungal suspension from a standing culture for 48 hours at 30° C. in a Sabouraud dextrose liquid culture medium (SDB) was diluted with RPMI1640 medium to adjust a fungal suspension of 1.2×10^3 cells/mL. For the A. fumigatus Tsukuba strain, −80° C. stored strain was diluted with RPMI1640 medium to adjust to a fungal suspension of 4.5×10^3 cells/mL.
(§2) Using a U-bottomed 96 well plate, 8 samples/plate (A to H) of sample dilution solutions were prepared. On the 2nd to 12th rows were dispensed 10 μL of dimethyl sulfoxide solution. Weighted sample was dissolved in dimethyl sulfoxide to prepare a 2.5 mg/mL solution, 20 μL of this solution was added to the first row of the prepared plate, and 12 steps of two-fold step dilutions (10 μL of solution+10 μL of dimethyl sulfoxide solution) were performed on the plate. This sample dilution solution was dispensed in the amount of 1 μL to a flat-bottomed 96 well plate for MIC measurement to prepare a sample dilution plate.
(§3) The fungal suspension prepared in (1) was used in the amount of 99 μL/well to inoculate the flat-bottomed 96 well plate containing 1 μL/well of the test compound dilution prepared in (2), and a standing culture was carried out aerobically for 42-48 hours at 35° C.

[2] = tested on: A. fumigatus Tsukuba strain; assay: Anti-Aspergillus activity, MIC measurement; type: cell-based; details: RPMI1640, 42-48 hours at 35° C., visual inspection, read-out: Anti-Aspergillus Activity (minimum inhibitory concentration, MIC)
Method: as §1, §2, §3

| Compound | MIC [1] [µg/mL] | MIC [2] [µg/mL] |
| --- | --- | --- |
| Cc1cccc(OCc2ccc(Cc3cc(-c4cccnc4N)on3)cc2)n1 [Example 3, 3-(3-(4-(6-Methyl-pyridin-2-yloxymethyl)-benzyl)-isoxazol-5-yl)-pyridin-2-ylamine] | 0.1 (≈ 0.269 µM) | 0.78 (≈ 2.09 µM) |
| CCCCOCc1ccc(Cc2cc(-c3cccnc3N)on2)cc1 [Example 4, 3-(3-(4-Butoxymethyl-benzyl)-isoxazol-5-yl)-pyridin-2-ylamine] | 0.2 (≈ 0.593 µM) | 0.39 (≈ 1.16 µM) |
| Nc1ncccc1-c1cc(Cc2ccc(OCc3ccccc3F)cc2)no1 [Example 5, 3-(3-(4-(2-Fluoro-benzyloxy)-benzyl)-isoxazol-5-yl)-pyridin-2-ylamine] | 0.39 (≈ 1.04 µM) | 0.39 (≈ 1.04 µM) |
| Nc1ncccc1-c1cc(Cc2ccc(OCc3cccc(F)c3)cc2)no1 [Example 6, 3-(3-(4-(3-Fluoro-benzyloxy)-benzyl)-isoxazol-5-yl)-pyridin-2-ylamine] | 0.39 (≈ 1.04 µM) | 0.39 (≈ 1.04 µM) |
| Nc1ncccc1-c1cc(Cc2ccc(OCc3ccc(F)cc3)cc2)no1 [Example 7, 3-(3-(4-(4-Fluoro-benzyloxy)-benzyl)-isoxazol-5-yl)-pyridin-2-ylamine] | 1.56 (≈ 4.16 µM) | 0.2 (≈ 0.533 µM) |
| Nc1ncccc1-c1cc(Cc2ccc(OCC3CC3)cc2)no1 [Example 8, 3-(3-(4-Cyclopropylmethoxy-benzyl)-isoxazol-5-yl)-pyridin-2-ylamine] | 1.56 (≈ 4.85 µM) | 0.78 (≈ 2.43 µM) |
| Cc1cccc(COc2ccc(Cc3cc(-c4cccnc4N)on3)cc2)n1 [Example 10, 3-(3-(4-(6-Methyl-pyridin-2-ylmethoxy)-benzyl)-isoxazol-5-yl)-pyridin-2-ylamine] | 0.39 (≈ 1.05 µM) | 0.78 (≈ 2.09 µM) |
| Nc1ccc(-c2cc(Cc3ccc(OCc4ccccc4F)cc3)no2)c(N)n1 [Example 18, 3-(3-(4-(2-Fluoro-benzyloxy)-benzyl)-isoxazol-5-yl)-pyridin-2,6-diamine] | 1.56 (≈ 4 µM) | 0.78 (≈ 2 µM) |
| Nc1ccc(-c2cc(Cc3ccc(OCc4cccc(F)c4)cc3)no2)c(N)n1 [Example 19, 3-(3-(4-(3-Fluoro-benzyloxy)-benzyl)-isoxazol-5-yl)-pyridin-2,6-diamine] | 0.78 (≈ 2 µM) | 0.39 (≈ 0.999 µM) |
| Nc1ccc(-c2cc(Cc3ccc(OCc4ccc(F)cc4)cc3)no2)c(N)n1 [Example 20, 3-(3-(4-(4-Fluoro-benzyloxy)-benzyl)-isoxazol-5-yl)-pyridin-2,6-diamine] | 0.78 (≈ 2 µM) | 0.2 (≈ 0.512 µM) |
| Nc1ccc(-c2cc(Cc3ccc(OCC4CC4)cc3)no2)c(N)n1 [Example 21, 3-(3-(4-Cyclopropylmethoxy-benzyl)-isoxazol-5-yl)-pyridin-2,6-diamine] | 1.56 (≈ 4.64 µM) | 0.78 (≈ 2.32 µM) |
| Nc1ccc(-c2cc(Cc3ccc(OCc4ccccn4)cc3)no2)c(N)n1 [Example 22, 3-(3-(4-(Pyridin-2-ylmethoxy)-benzyl)-isoxazol-5-yl)-pyridin-2,6-diamine] | 0.2 (≈ 0.536 µM) | 0.39 (≈ 1.04 µM) |
| Cc1cccc(COc2ccc(Cc3cc(-c4ccc(N)nc4N)on3)cc2)n1 [Example 23, 3-(3-(4-(6-Methyl-pyridin-2-ylmethoxy)-benzyl)-isoxazol-5-yl)-pyridin-2,6-diamine] | 0.78 (≈ 2.01 µM) | 1.56 (≈ 4.03 µM) |
| COCc1ccc(-c2cc(Cc3ccc(OCc4ccccc4)cc3)no2)c(N)n1 [Example 26, 3-(3-(4-Benzyloxy-benzyl)-isoxazol-5-yl)-6-methoxymethyl-pyridin-2-ylamine] | 0.78 (≈ 1.94 µM) | 0.78 (≈ 1.94 µM) |
| Nc1ccc(-c2cc(Cc3ccc(OCc4ccccc4)cc3)no2)cn1 [Example 28, 5-(3-(4-Benzyloxy-benzyl)-isoxazol-5-yl)-pyridin-2-ylamine] | > 25 | 0.39 (≈ 1.09 µM) |
| Nc1ncccc1-c1cnn(Cc2ccc(Oc3ccccc3)cc2)c1 [Example 34, 3-(1-(4-Phenoxy-benzyl)-1H-pyrazol-4-yl)-pyridin-2-ylamine] | 0.78 (≈ 2.28 µM) | 0.39 (≈ 1.14 µM) |

| Compound | MIC [1] [µg/mL] | MIC [2] [µg/mL] |
| --- | --- | --- |
| Nc1ncccc1-c1cnn(Cc2cccc(Oc3ccccc3)c2)c1 [Example 35, 3-(1-(3-Phenoxy-benzyl)-1H-pyrazol-4-yl)-pyridin-2-ylamine] | 0.2 (≈ 0.584 µM) | 1.56 (≈ 4.56 µM) |
| Nc1ncccc1-n1cc(Cc2ccc(OCc3ccccc3)cc2)cn1 [Example 39, 3-(4-(4-Benzyloxy-benzyl)-pyrazol-1-yl)-pyridin-2-ylamine] | 3.13 (≈ 8.78 µM) | 3.13 (≈ 8.78 µM) |
| Cc1ccc(COc2ccc(Cc3cc(-c4cccnc4N)on3)cc2)nc1 [Example 42, 3-(3-(4-(5-Methyl-pyridin-2-ylmethoxy)-benzyl)-isoxazol-5-yl)-pyridin-2-ylamine] | 0.78 (≈ 2.09 µM) | 1.56 (≈ 4.19 µM) |
| Cc1ccc(OCc2ccc(Cc3cc(-c4cccnc4N)on3)cc2)nc1 [Example 44, 3-(3-(4-(5-Methyl-pyridin-2-yloxymethyl)-benzyl)-isoxazol-5-yl)-pyridin-2-ylamine] | 1.56 (≈ 4.19 µM) | 1.56 (≈ 4.19 µM) |
| Cc1ccc(Cc2ccc(Cc3cc(-c4cccnc4N)on3)cc2)o1 [Example 46, 3-(3-(4-(5-Methyl-furan-2-ylmethyl)-benzyl)-isoxazol-5-yl)-pyridin-2-ylamine] | 0.05 (≈ 0.145 µM) | 0.2 (≈ 0.579 µM) |
| Cc1cc(COc2ccc(Cc3cc(-c4cccnc4N)on3)cc2)ccn1 [Example 47, 3-(3-(4-(2-Methyl-pyridin-4-ylmethoxy)-benzyl)-isoxazol-5-yl)-pyridin-2-ylamine] | 0.2 (≈ 0.537 µM) | 0.39 (≈ 1.05 µM) |
| Cc1ccc(Oc2ccc(Cc3cc(-c4cccnc4N)on3)s2)cc1 [Example 48, 3-(3-(5-p-Tolyloxy-thiophen-2-ylmethyl)-isoxazol-5-yl)-pyridin-2-ylamine] | 0.39 (≈ 1.07 µM) | 0.2 (≈ 0.55 µM) |
| Nc1ncccc1-c1cc(Cc2ccc(OCc3ccncc3)cc2)no1 [Example 49, 3-(3-(4-(Pyridin-4-ylmethoxy)-benzyl)-isoxazol-5-yl)-pyridin-2-ylamine] | 0.05 (≈ 0.14 µM) | 0.39 (≈ 1.09 µM) |
| Nc1ncccc1-c1cc(Cc2ccc(OCc3cccnc3)cc2)no1 [Example 50, 3-(3-(4-(Pyridin-3-ylmethoxy)-benzyl)-isoxazol-5-yl)-pyridin-2-ylamine] | 0.78 (≈ 2.18 µM) | 1.56 (≈ 4.35 µM) |
| Nc1ncccc1-c1cc(Cc2ccc(Oc3ccccc3)nc2)no1 [Example 53, 3-(3-(6-Phenoxy-pyridin-3-ylmethyl)-isoxazol-5-yl)-pyridin-2-ylamine] | 0.2 (≈ 0.581 µM) | 0.2 (≈ 0.581 µM) |
| Nc1ncccc1-c1cc(Cc2ccc(COc3ccc(F)cn3)cc2)no1 [Example 56] | 1.56 (≈ 4.14 µM) | > 25 |
| Nc1ncccc1-c1cc(Cc2ccn(Cc3ccccc3)c2)no1 [Example 57, 3-(3-(1-Benzyl-1H-pyrrol-3-ylmethyl)-isoxazol-5-yl)-pyridin-2-ylamine] | 0.05 (≈ 0.151 µM) | 0.2 (≈ 0.605 µM) |
| Nc1ncccc1-c1cc(Cc2ccc(COc3cc(F)ccn3)cc2)no1 [Example 59, 3-(3-(4-(4-Fluoro-pyridin-2-yloxymethyl)-benzyl)-isoxazol-5-yl)-pyridin-2-ylamine] | 0.39 (≈ 1.04 µM) | 0.39 (≈ 1.04 µM) |
| Nc1ncccc1-c1cc(Cc2cccc(OCc3ccccn3)c2)no1 [Example 60, 3-(3-(3-(Pyridin-2-ylmethoxy)-benzyl)-isoxazol-5-yl)-pyridin-2-ylamine] | 0.2 (≈ 0.558 µM) | 1.56 (≈ 4.35 µM) |
| Nc1ncccc1-c1cc(Cc2cccc(OCc3ccccc3)c2)no1 [Example 61, 3-(3-(3-Benzyloxy-benzyl)-isoxazol-5-yl)-pyridin-2-ylamine] | 0.2 (≈ 0.56 µM) | 0.39 (≈ 1.09 µM) |
